The text below walks through data of US11021441B2, “High solubility thioether quinones” (Wisconsin Alumni Research Foundation, priority 2017, dated 2021).

The data set is described as follows: Redox couple / cyclic voltammetry in aqueous 1 M H2SO4. Format: physicochemical. How it is done: More preferably, a solution of mercaptoethanesulfonate is allowed to react with a suspension of benzoquinone in water (Scheme 16). 0.655 g of sodium mercaptoethanesulfonate in 10 ml of water with 60 microliters of acetic acid was treated with 0.438 g of benzoquinone and allowed to stir at room temperature for 45 minutes. The resulting mixture was filtered and the filtrate was extracted with three 5 ml portions of ethyl acetate. The aqueous phase was then diluted with 30 ml of ethanol and heated to clarify it. On cooling, crystals formed that gave ^1H and ^13C NMR spectra in D2O in accord with tetra-thioethylsulfonato hydroquinone, 52 (FIGS. 5A and 5B).
To 3.956 g of sodium 3-mercaptopropanesulfonate dispersed in 50 mL of nitrogen-purged N-methyl pyrrolidinone were added 10.5 mL of 2 M aqueous NaOH. Once mixed, 2.766 g of 1,8-dichloroanthraquinone were added (Scheme 28). The suspension was heated under nitrogen to 90° C. for six days then allowed to cool. 50 mL of water containing 1 mL of acetic acid was added to the cooled solution, which was further diluted with 25 mL water. The solution was extracted with four 50 mL portions of methylene chloride, and the aqueous phase was evaporated. The residue was dissolved with 35 mL of water and 60 mL of methanol was added. The mixture was heated until clear, and left to slowly cool. […]

In turn, `O=S(=O)([O-])CCSc1c(O)c(SCCS(=O)(=O)[O-])c(SCCS(=O)(=O)[O-])c(O)c1SCCS(=O)(=O)[O-].[Na+].[Na+].[Na+].[Na+]` [Compound 52, 2,3,5,6-tetrakis(ethylsulfanyl-2′-sulfonate)-1,4-hydroquinone tetrasodium salt] registered a reversible redox couple (aqueous 1 M H2SO4) of 0.63 V vs. NHE.

For the compound `O=C1c2cccc(SCCCS(=O)(=O)[O-])c2C(=O)c2c(SCCCS(=O)(=O)[O-])cccc21.[Na+].[Na+]` [Compound 109], the reduction potential result (cyclic voltammetry in 1 M H2SO4) was “approximately 85 mV vs. NHE”.
